Legend:
[1] = tested on: Setaria; experiment: Pre-emergence test/greenhouse; format: in vivo; details: greenhouse, 125 g of ai./ha, after three weeks, 0%=no effect, 100%=total destruction
Procedure: (§1) Solvent: 5 parts by weight of acetone
(§2) Emulsifier: 1 part by weight of alkylaryl polyglycol ether
(§3) To produce a suitable preparation of active compound, 1 part by weight of active compound is mixed with the stated amount of solvent, the stated amount of emulsifier is added and the concentrate is diluted with water to the desired concentration.
(§4) Seeds of the test plants are sown in normal soil. After about 24 hours, the soil is watered with the preparation of the active compound. Advantageously, the amount of water per unit area is kept constant. The active compound concentration in the preparation is not important, only the active compound application rate per unit area is critical.
(§5) After three weeks, the degree of damage to the plants is rated in % damage in comparison with the development of the untreated control. The figures denote:
(§6) 0%=no effect (like untreated control)

[2] = tested on: Cyperus; experiment: Pre-emergence test/greenhouse; format: in vivo; details: greenhouse, 125 g of ai./ha, after three weeks, 0%=no effect, 100%=total destruction
Procedure: as §1, §2, §3, §4, §5, §6

[3] = tested on: Bromus; experiment: Pre-emergence test/greenhouse; format: in vivo; details: greenhouse, 125 g of ai./ha, after three weeks, 0%=no effect, 100%=total destruction
Procedure: as §1, §2, §3, §4, §5, §6

[4] = tested on: Chenopodium; experiment: Pre-emergence test/greenhouse; format: in vivo; details: greenhouse, 125 g of ai./ha, after three weeks, 0%=no effect, 100%=total destruction
Procedure: as §1, §2, §3, §4, §5, §6

[5] = tested on: Lolium; experiment: Pre-emergence test/greenhouse; format: in vivo; details: greenhouse, 125 g of ai./ha, after three weeks, 0%=no effect, 100%=total destruction
Procedure: as §1, §2, §3, §4, §5, §6

[6] = tested on: Wheat; experiment: Pre-emergence test/greenhouse; format: in vivo; details: greenhouse, 125 g of ai./ha, after three weeks, 0%=no effect, 100%=total destruction
Procedure: as §1, §2, §3, §4, §5, §6

[7] = tested on: Maize; experiment: Pre-emergence test/greenhouse; format: in vivo; details: greenhouse, 125 g of ai./ha, after three weeks, 0%=no effect, 100%=total destruction
Procedure: as §1, §2, §3, §4, §5, §6

[8] = tested on: Solanum; experiment: Pre-emergence test/greenhouse; format: in vivo; details: greenhouse, 125 g of ai./ha, after three weeks, 0%=no effect, 100%=total destruction
Procedure: as §1, §2, §3, §4, §5, §6

[9] = tested on: Matricaria; experiment: Pre-emergence test/greenhouse; format: in vivo; details: greenhouse, 125 g of ai./ha, after three weeks, 0%=no effect, 100%=total destruction
Procedure: as §1, §2, §3, §4, §5, §6

[10] = tested on: weeds; experiment: Pre-emergence test, summary for weeds; format: in vivo; details: result in words
Procedure: as §1, §2, §3, §4, §5, §6

[11] = tested on: weeds; experiment: Post-emergence test, summary for weeds; format: in vivo; details: result in words
Procedure: as §1, §2, §3
(§7) Test plants which have a height of 5-15 cm are sprayed with the preparation of the active compound in such a way as to apply the particular amounts of active compound desired per unit area. The concentration of the spray liquor is chosen so that the amounts of active compound desired in each case are applied in 1000 l of water/ha.
(§8) After three weeks, the degree of damage to the plants is rated in % damage in comparison with the development of the untreated control.
as §6

[12] = tested on: Setaria; experiment: Post-emergence test/greenhouse; format: in vivo; details: greenhouse, 250 g of ai/ha, after three weeks, 0%=no effect, 100%=total destruction
Procedure: as §1, §2, §3, §7, §8, §6

[13] = tested on: Sinapis; experiment: Post-emergence test/greenhouse; format: in vivo; details: greenhouse, 250 g of ai/ha, after three weeks, 0%=no effect, 100%=total destruction
Procedure: as §1, §2, §3, §7, §8, §6

[14] = tested on: Amaranthus; experiment: Post-emergence test/greenhouse; format: in vivo; details: greenhouse, 250 g of ai/ha, after three weeks, 0%=no effect, 100%=total destruction
Procedure: as §1, §2, §3, §7, §8, §6

[15] = tested on: Abutilon; experiment: Post-emergence test/greenhouse; format: in vivo; details: greenhouse, 250 g of ai/ha, after three weeks, 0%=no effect, 100%=total destruction
Procedure: as §1, §2, §3, §7, §8, §6

[16] = tested on: Sinapis; experiment: Pre-emergence test/greenhouse; format: in vivo; details: greenhouse, 250 g of ai./ha, after three weeks, 0%=no effect, 100%=total destruction
Procedure: as §1, §2, §3, §4, §5, §6

[17] = tested on: Amaranthus; experiment: Pre-emergence test/greenhouse; format: in vivo; details: greenhouse, 250 g of ai./ha, after three weeks, 0%=no effect, 100%=total destruction
Procedure: as §1, §2, §3, §4, §5, §6

[18] = tested on: Abutilon; experiment: Pre-emergence test/greenhouse; format: in vivo; details: greenhouse, 250 g of ai./ha, after three weeks, 0%=no effect, 100%=total destruction
Procedure: as §1, §2, §3, §4, §5, §6

[19] = tested on: Alopecurus; experiment: Pre-emergence test/greenhouse; format: in vivo; details: greenhouse, 250 g of ai./ha, after three weeks, 0%=no effect, 100%=total destruction
Procedure: as §1, §2, §3, §4, §5, §6

[20] = tested on: Maize; experiment: Post-emergence test/greenhouse; format: in vivo; details: greenhouse, 250 g of ai/ha, after three weeks, 0%=no effect, 100%=total destruction
Procedure: as §1, §2, §3, §7, §8, §6

[21] = tested on: Xanthium; experiment: Pre-emergence test/greenhouse; format: in vivo; details: greenhouse, 250 g of ai./ha, after three weeks, 0%=no effect, 100%=total destruction
Procedure: as §1, §2, §3, §4, §5, §6

| SMILES | degree of damage to the plants, Setaria [1] | degree of damage to the plants, Cyperus [2] | degree of damage to the plants, Bromus [3] | degree of damage to the plants, Chenopodium [4] | degree of damage to the plants, Lolium [5] | degree of damage to the plants, Solanum [8] | degree of damage to the plants, Matricaria [9] | activity against weeds [10] | activity against weeds [11] | degree of damage to the plants, Setaria [12] | degree of damage to the plants, Sinapis [13] | degree of damage to the plants, Amaranthus [14] | further results |
| --- | --- | --- | --- | --- | --- | --- | --- | --- | --- | --- | --- | --- | --- |
| CSc1nn(C(=O)NS(=O)(=O)c2c(C)csc2C)c(=O)n1C [Example 4] | 100% | 95% | 95% | 90% | 100% | 80% | 90% | very strong activity | – | – | – | – | degree of damage to the plants, Wheat [6]: 0%; degree of damage to the plants, Maize [7]: 0% |
| CCOc1nn(C(=O)NS(=O)(=O)c2c(C)csc2C)c(=O)n1CC [Example 13] | – | – | – | – | – | – | – | – | very strong activity | 80% | 100% | 100% | degree of damage to the plants, Abutilon [15]: 80% |
| CCOc1nn(C(=O)NS(=O)(=O)c2c(C)csc2C)c(=O)n1C1CC1 [Example 12] | – | – | – | – | – | – | – | very strong activity | – | – | – | – | degree of damage to the plants, Sinapis [16]: 95%; degree of damage to the plants, Amaranthus [17]: 90%; degree of damage to the plants, Abutilon [18]: 90%; degree of damage to the plants, Alopecurus [19]: 70% |
| COc1nn(C(=O)NS(=O)(=O)c2c(C)csc2C)c(=O)n1C [Example 11] | 100% | 100% | 100% | 95% | 100% | 95% | 100% | very strong activity | – | – | – | – | – |
| C#CCSc1nn(C(=O)NS(=O)(=O)c2c(C)csc2C)c(=O)n1C [Example 14] | – | – | – | – | – | – | – | – | very strong activity | 90% | 95% | 95% | degree of damage to the plants, Maize [20]: 10% |
| CCCOc1nn(C(=O)NS(=O)(=O)c2c(C)csc2C)c(=O)n1C [Example 5] | – | – | – | – | – | – | – | very strong activity | – | – | – | – | degree of damage to the plants, Sinapis [16]: 95%; degree of damage to the plants, Amaranthus [17]: 90%; degree of damage to the plants, Abutilon [18]: 90%; degree of damage to the plants, Alopecurus [19]: 70%; degree of damage to the plants, Xanthium [21]: 90% |
| Cc1csc(C)c1S(=O)(=O)NC(=O)n1nc(OC(C)C)n(C)c1=O [Example 6] | – | – | – | – | – | – | – | – | very strong activity | 80% | 100% | 90% | degree of damage to the plants, Maize [20]: 10% |
| Cc1nc(C(=O)NS(=O)(=O)c2c(C)csc2C)no1 [Example 2, N-(2,4-dimethyl-thien-3-yl-sulphonyl)-5-methyl-1,2,4-oxadiazol-3-carboxamide] | – | – | – | – | – | – | – | – | – | – | – | – | melting point: 164 °C |
| CCOc1nn(C(=O)NS(=O)(=O)c2c(C)csc2C)c(=O)n1C [Example 1, 5-ethoxy-4-methyl-2-(2,4-dimethyl-thien-3-yl-sulphonylaminocarbonyl)-2,4-dihydro-3H-1,2,4-triazol-3-one] | 100% | 95% | 100% | 100% | 100% | 100% | 100% | very strong activity | – | – | – | – | melting point: 158 °C; degree of damage to the plants, Wheat [6]: 0% |
| CCc1nn(C(=O)NS(=O)(=O)c2c(C)csc2C)c(=O)n1C [Example 3] | 100% | 100% | 100% | 100% | 100% | 100% | 100% | very strong activity | – | – | – | – | degree of damage to the plants, Maize [7]: 5% |

— patent US6686478B2, “Thienylsulphonylamino(thio)carbonyl compounds” (Bayer Aktiengesellschaft, priority 1996, dated 2004)
